Reference: US8188148B2, “Substituted 1,3-diphenylpropane derivatives, preparations and uses thereof” (Genfit, priority 2006, dated 2012)

Columns and labels:
[1] = tested on: THP-1 human monocytes; assay: Secretion of MCP1 by THP-1 monocytes stimulated with PMA; type: cell-based; conditions: THP-1 cells, 1 μM compound, 5 ng/ml PMA, 24 hours, vs DMSO
Procedure: (§1) The anti-inflammatory effects of the compound according to the invention is evaluated by measuring the secretion of MCP1 (Monocyte chemotactic protein-1) by THP1 monocytes treated for 24 hours with the compounds according to the invention and stimulated simultaneously with PMA (Phorbol 12-myristate 13-acetate, which promotes an inflammatory response in cells and their differentiation into macrophages).
as §1, with “the compounds” for “the compound”, “invention were” for “invention is”, “by” for “by THP1”, “with” for “with the”, “macrophages). […]” for “macrophages).”
The treatment medium is recovered and the MCP1 concentration is measured using the ELISA kit <<Human MCP-1 ELISA Set>> (BD OptEIA; 555179) in accordance with the manufacturer's recommendation.
MCP1 is laid on a plate and is recognized by an anti-MCP1 specific antibody. […] The coloration resulting from enzymatic activity is proportional to the quantity of fixed MCP1 and can be measured by a spectrophotometry method. A range is performed from a point representative of a known concentration and from which the MCP1 concentration of each sample is calculated. […]

[2] = tested on: db/db mouse; assay: In vivo evaluation on db/db mouse: body weight, glycemia, insulinemia, plasma lipids; conditions: 50 mpk per os, 28 days
Procedure: The effect of the compounds according to the invention is evaluated in vivo on the db/db mouse by measuring the body weight evolution, the glucose levels, the insulin levels, the plasma total cholesterol and triglyceride levels, and by analyzing the distribution of cholesterol in different plasma lipoprotein fractions, after 28 days of a per os treatment with compounds according to the invention.
Female db/db mice were kept on a 12 hour/12 hour light/dark cycle at a constant temperature of 20±3° C. After a one week acclimatization period, the mice were weighed and divided into groups of 8 animals selected so as to render uniform the distribution of their body weights and their plasma lipid rates, determined before the experiment. The tested compounds were suspended in carboxymethylcellulose (Sigma C4888) and administered intra-gastric tube feeding once a day for 28 days at the chosen dose. The animals had free access to food and water (standard diet). Taking of food and weight gain are recorded throughout the experiment. At the end of the experiment, the animals were anesthetized after a 4 hour fast, a blood sample was taken using (EDTA) anticoagulant, then the mice were weighed and euthanized. The plasma was separated by centrifugation at 3000 rotations/minute for 20 minutes. The samples were kept at +4° C. The hepatic tissue and skeletal muscle tissue samples were taken and frozen immediately in liquid nitrogen then conserved at −80° C. for later analysis.
Murine plasma glucose is measured out according to an enzyme-colorimetric method using a Glucose RTU kit (Biomérieux). Glucose is transformed into gluconic acid under the action of glucose oxidase; the reaction releases hydrogen peroxide. Hydrogen peroxide is measured according to the Trinder reaction which, under the action of a peroxidase and in the presence of phenol and amino-4-antipyrine, produces water and a colored product, quinoneimine. The color intensity, due to the quinoneimine, is proportional to the amount of glucose present in the sample.
Murine insulin is measured using ELISA method (using the INSKR020 kit from provider Crystal chem.). A microplate is coated with a mouse anti-insulin antibody. Then, the serum to be assayed for insulin is placed onto the plate. A guinea pig anti-insulin antibody is used to recognize the complex formed by the mouse insulin and the anti-insulin monoclonal antibody. Finally an anti-guinea pig antibody labeled with peroxidase is added and bind to the guinea pig anti-insulin antibody. The colorimetric reaction is performed by adding an OPD (ortho phenyl diamine) enzyme substrate. The intensity of the color is proportional to the amount of insulin present in the sample.
Plasma lipid concentrations (total cholesterol and triglycerides) are measured by enzymatic assays (bioMérieux-Lyon-France) according to the provider's recommendations.
The different lipid fractions (VLDL, LDL, HDL) in the plasma were separated using gel-filtration chromatography. Cholesterol concentrations were then measured for each fraction by enzymatic assays (bioMérieux-Lyon-France) according to the provider's recommendations.

[3] = tested on: PPARs target genes (PDK4, UCP2); assay: Hepatic and skeletal muscle gene expression by quantitative RT-PCR in db/db mouse; type: in vivo; conditions: 50 mpk, 28 days
Procedure: The effectiveness of the compounds according to the invention is also evaluated by measuring, in the hepatic and muscular (skeletal) tissues, the expression of genes involved in lipid and/or glucid metabolism and in energy dissipation. Each level of gene expression is normalized regarding the expression level of the reference gene 36B4 in the hepatic tissue, or regarding the expression level of the reference gene 18S in the gastrocnemius skeletal muscle. The induction factor, i.e. the ratio between the relative signal (induced by the compound according to the invention) and the average of the relative values obtained with the control group, is then calculated. The higher the induction factor is, the more the greater the compound promotes gene expression. The final result is represented as the average of the induction values obtained with each experimental group. • FIG. 4-8: Expression of PDK4 in the hepatic tissue of the db/db mouse, after 28 days of treatment with compound 1 and compound 3, administered at 50 mpk • FIG. 4-9: Expression of UCP2 (uncoupling protein 2) in the skeletal muscle tissue of the db/db mouse, after 28 days of treatment with compound 1 and compound 3, administered at 50 mpk
Total RNA was extracted from liver fragments by using a NucleoSpin® 96 RNA kit (Macherey Nagel, Hoerdt, France) according to the manufacturer's instructions.
Total RNA was extracted from gastrocnemius skeletal muscle fragments by using a RNeasy® Fibrous Tissue kit (Qiagen) according to the manufacturer's instructions.
1 μg of total RNA (quantified by spectrophotometry) was then reverse-transcripted into complementary DNA by means of a 1 hour reaction at 37° C. in a total volume of 20 μl containing a 1× buffer (Sigma), 1.5 mM of DTT, 0.18 mM of dNTPs (Promega), 200 ng of pdN6 (Amersham), 30 U of RNase inhibitor (Sigma), and 1 μl of MMLV-RT (Sigma).
The PCR quantitative experiments were carried out using the MyiQ Single-Color Real-Time PCR Detection System (Biorad, Marnes-la-Coquette, France) and were performed using the iQ SYBR Green Supermix kit according to the provider's recommendations, in 96-well plates in 5 μl of a diluted reverse-transcription solution at a hybridization temperature of 55° C. The specific primer pairs of the genes being studied were used:
The amount of fluorescence emitted is directly proportional to the amount of complementary DNA present at the beginning of the reaction and amplified during the PCR. For each target studied, a range of solutions is performed with successive dilutions of mixtures of a few microliters of different reverse-transcription solutions. The relative levels of expression of each target are thus determined by using efficiency curves obtained with the points relative to the range of PCR solutions. […]

## Cc1cc(CCC(=O)c2ccc(Br)cc2)cc(C)c1OC(C)(C)C(=O)O [Compound 3, 2-[2,6-dimethyl-4-[3-[4-bromophenyl]-3-oxo-propyl]phenoxy]-2-methylpropanoic acid]
[1]
  MCP1 secreted by monocytes: significant reduction
[2]
  HDL-cholesterol fraction (distribution of cholesterol in plasma lipoprotein fractions): significant increase
[2]; vs control
  plasma free fatty acids: very significantly decreased
  plasma triglycerides: very significantly decreased
  total plasma cholesterol: significantly increased
[3]; gastrocnemius skeletal muscle
  expression of the gene coding for UCP2 in the skeletal muscle: reduction
[3]; hepatic tissue
  hepatic expression of the gene coding for PDK4: significant increase
